# Patent US7732473B2, “Compounds with nootropic action, their preparation, pharmaceutical compositions containing them, and use thereof” (Neurotune AG, priority 2006, dated 2010)
# Test system: rat model of mononeuropathy dx
# Assay: Paw-pressure test in rat chronic constriction injury model of mononeuropathy, injured paw (dx)
# Assay type: in vivo
# Conditions: i.c.v., dose per compound (3-300 μg); paw-pressure test 14 days after operation
# Excerpt: Pharmacological Methods Chronic Constriction Injury Model
# A peripheral mononeuropathy was produced in adult rats by placing loosely constrictive ligatures around the common sciatic nerve according to the method described by Bennett & Xie (Pain […], 33, 87-107).
# Rats were anesthetized with chloral hydrate. The common sciatic nerve was exposed at the level of the middle of the thigh by blunt dissection through biceps femoris. Proximal to sciatica's trifurcation, about 1 cm of the nerve was freed of adhering tissue and four ligatures (3/0 silk tread) were tied loosely around it with about 1 mm spacing. The length of the nerve thus affected was […]. Great care was taken to tie the ligatures such that the diameter of the nerve was seen to be just barely constricted when viewed with 40× magnification. The left paw was untouched.
# The nociceptive threshold in the rat was determined with an analgesimeter (Ugo Basile, Varese, Italy), according to the method described by Leighton et al. (Br. J. Pharmacol. 1988, 93, 553-560). Rats scoring below 40 g or over 75 g during the test before drug administration (25%) were rejected. An arbitrary cut-off value of 250 g was adopted.
row,Compound,antihyperalgic effect compared with saline or vehicle treated group
1,"Cc1ccccc1N1C(=O)CN2C(=O)CCC21 (stereo not drawn) [Example 2, 1-o-tolyl-tetrahydro-1H-pyrrolo[1,2-a]imidazole-2,5-dione]",showed an antihyperalgic effect
2,"CC[C@@H](C(N)=O)N1CCCC1=O [LEVETIRACETAM, 2-(2-oxopyrrolidin-1-yl) butyramide, reference compound]",showed an antihyperalgic effect
3,"CC(C)c1cccc(N2C(=O)CN3C(=O)CCC32)c1 (stereo not drawn) [Example 22, 1-(3-Isopropyl-phenyl)-tetrahydro-pyrrolo [1,2-a]imidazole-2,5-dione]",showed an antihyperalgic effect
4,"Cc1cccc(N2C(=O)CN3C(=O)CCC32)c1 (stereo not drawn) [Example 5, 1-m-Tolyl-tetrahydro-pyrrolo[1,2-a]imidazole-2,5-dione]",showed an antihyperalgic effect
5,"N#Cc1cccc(N2C(=O)CN3C(=O)CCC32)c1 (stereo not drawn) [Example 13, 1-(3-Cyano-phenyl)-tetrahydro-pyrrolo [1,2-a]imidazole-2,5-dione]",showed an antihyperalgic effect
6,"NCC1(CC(=O)O)CCCCC1 [GABAPENTIN, reference compound]",showed an antihyperalgic effect
7,"Cc1ccc(N2C(=O)CN3C(=O)CCC32)cc1 (stereo not drawn) [Example 6, 1-p-Tolyl-tetrahydro-pyrrolo[1,2-a]imidazole-2,5-dione]",showed an antihyperalgic effect
8,"O=C1CCC2N1CC(=O)N2c1ccccc1 (stereo not drawn) [Example 1, 1-Phenyl-tetrahydro-1H-pyrrolo[1,2-a]imidazole-2,5-dione]",showed an antihyperalgic effect
9,"O=C1CN2C(=O)CCC2N1 (stereo not drawn) [DIMIRACETAM, 2,5-dioxohexahydro-1H-pyrrolo[1,2-a]imidazole, reference compound]",showed an antihyperalgic effect

# Test system: not given
# Assay: not given
# Conditions: not given
row,Compound,melting point
1,"CC12CCC(=O)N1CC(=O)N2c1ccccc1 (stereo not drawn) [Example 29, 7a-Methyl-1-phenyl-tetrahydro-pyrrolo [1,2-a]imidazole-2,5-dione]",154 to 155 °C
2,"O=C1CCC2N1CC(=O)N2c1ccc2ccccc2c1 (stereo not drawn) [Example 21, 1-Naphthalen-2-yl-tetrahydro-pyrrolo [1,2-a]imidazole-2,5-dione]",175 to 176 °C
3,"Cc1ccc(N2C(=O)CN3C(=O)CCC32)cc1C (stereo not drawn) [Example 20, 1-(3,4-Dimethyl-phenyl)-tetrahydro-pyrrolo [1,2-a]imidazole-2,5-dione]",142 to 143 °C
4,"Cc1ccccc1N1C(=O)CN2C(=O)CCC21 (stereo not drawn) [Example 2, 1-o-tolyl-tetrahydro-1H-pyrrolo[1,2-a]imidazole-2,5-dione]",138 to 139 °C
5,"O=C1CCC2N1CC(=O)N2c1cccc(F)c1 (stereo not drawn) [Example 44, 1-(3-Fluoro-phenyl)-tetrahydro-pyrrolo [1,2-a]imidazole-2,5-dione]",145 to 149 °C
6,"COc1cccc(N2C(=O)CN3C(=O)CCC32)c1 (stereo not drawn) [Example 12, 1-(3-Methoxy-phenyl)-tetrahydro-pyrrolo [1,2-a]imidazole-2,5-dione]",94 to 95 °C
7,"CC(C)c1cccc(N2C(=O)CN3C(=O)CCC32)c1 (stereo not drawn) [Example 22, 1-(3-Isopropyl-phenyl)-tetrahydro-pyrrolo [1,2-a]imidazole-2,5-dione]",81 to 82 °C
8,"Cc1cc(N2C(=O)CN3C(=O)CCC32)ccc1Cl (stereo not drawn) [Example 23, 1-(4-Chloro-3-methyl-phenyl)-tetrahydro-pyrrolo[1,2-a]imidazole-2,5-dione]",138 to 139 °C
9,"N#Cc1ccccc1N1C(=O)CN2C(=O)CCC21 (stereo not drawn) [Example 43, 1-(2-Cyano-phenyl)-tetrahydro-pyrrolo [1,2-a]imidazole-2,5-dione]",94 to 95 °C
10,"Cc1ccc(N2C(=O)CN3C(=O)CCC32)nc1 (stereo not drawn) [Example 42, 1-(5-Methylpyridin-2-yl)-tetrahydropyrrolo [1,2-a]imidazole-2,5-dione]",158 to 159 °C
11,"Cc1cccc(N2C(=O)CN3C(=O)CCC32)c1 (stereo not drawn) [Example 5, 1-m-Tolyl-tetrahydro-pyrrolo[1,2-a]imidazole-2,5-dione]",92 to 93 °C
12,"Cc1cc(C)cc(N2C(=O)CN3C(=O)CCC32)c1 (stereo not drawn) [Example 19, 1-(3,5-Dimethyl-phenyl)-tetrahydro-pyrrolo [1,2-a]imidazole-2,5-dione]",103 to 104 °C
13,Cc1c(F)cccc1N1C(=O)CN2C(=O)CCC21 (stereo not drawn) [Example 8],135 to 137 °C
14,"O=C(O)c1ccc(N2C(=O)CN3C(=O)CCC32)cc1 (stereo not drawn) [Example 35, 4-(2,5-Dioxo-hexahydro-pyrrolo[1,2-a]imidazole-1-yl)-benzoic acid]",252 to 253 °C
15,"O=C1C(Cc2ccccc2)N2C(=O)CCC2N1c1ccccc1 (stereo not drawn) [Example 24, 3-Benzyl-1-phenyl-tetrahydro-pyrrolo [1,2-a]imidazole-2,5,-dione]",134 to 136 °C
16,"N#Cc1cccc(N2C(=O)CN3C(=O)CCC32)c1 (stereo not drawn) [Example 13, 1-(3-Cyano-phenyl)-tetrahydro-pyrrolo [1,2-a]imidazole-2,5-dione]",128 to 130 °C
17,"CC1C(=O)N(c2ccccc2)C2CCC(=O)N12 (stereo not drawn) [Example 25, 3-Methyl-1-phenyl-tetrahydro-pyrrolo [1,2-a]imidazole-2,5,-dione]",137 to 138 °C
18,"O=C1CCC2N1CC(=O)N2c1ccccn1 (stereo not drawn) [Example 40, 1-Pyridin-2-yl-tetrahydro-pyrrolo[1,2-a] imidazole-2,5-dione]",139 to 140 °C

row,Compound,melting point
1,"O=C1CCC2N1CC(=O)N2c1cccs1 (stereo not drawn) [Example 4, 1-Thiophen-2-yl-tetrahydro-pyrrolo[1,2-a]imidazole-2,5-dione]",170 to 171 °C
2,"O=C1CCC2N1CC(=O)N2c1cccc(Cl)c1 (stereo not drawn) [Example 11, 1-(3-Chloro-phenyl)-tetrahydro-pyrrolo [1,2-a]imidazole-2,5-dione]",123 to 125 °C
3,"CS(=O)(=O)c1ccc(N2C(=O)CN3C(=O)CCC32)cc1 (stereo not drawn) [Example 37, 1-(4-Methanesulfonyl-phenyl)-tetrahydro-pyrrolo[1,2-a]imidazole-2,5-dione]",143 to 145 °C
4,"O=C1CCC2N1CC(=O)N2c1cccc(O)c1 (stereo not drawn) [Example 15, 1-(3-Hydroxy-phenyl)-tetrahydro-pyrrolo [1,2-a]imidazole-2,5-dione]",210 to 211 °C
5,"O=C1CCC2N1CC(=O)N2c1cccnc1 (stereo not drawn) [Example 41, 1-Pyridin-3-yl-tetrahydro-pyrrolo[1,2-a] imidazole-2,5-dione]",180 to 182 °C
6,"COc1ccc(N2C(=O)CN3C(=O)CCC32)cc1 (stereo not drawn) [Example 18, 1-(4-Methoxy-phenyl)-tetrahydro-pyrrolo[1,2-a]imidazole-2,5-dione]",210 to 211 °C
7,"Cc1cc(F)cc(N2C(=O)CN3C(=O)CCC32)c1 (stereo not drawn) [Example 27, 1-(3-Fluoro-5-methyl-phenyl)-tetrahydro-pyrrolo[1,2-a]imidazole-2,5-dione]",111 to 113 °C
8,"O=C1CCC2N1CC(=O)N2c1ccc(CO)cc1 (stereo not drawn) [Example 34, 1-(4-Hydroxymethyl-phenyl)-tetrahydro-pyrrolo[1,2-a]imidazole-2,5-dione]",159 to 161 °C
9,"O=C1CCC2N1CC(=O)N2c1ccc(F)cc1 (stereo not drawn) [Example 38, 1-(4-Fluoro-phenyl)-tetrahydro-pyrrolo [1,2-a]imidazole-2,5-dione]",158 to 159 °C
10,"CC(C)c1ccc(N2C(=O)CN3C(=O)CCC32)cc1 (stereo not drawn) [Example 33, 1-(4-Isopropyl-phenyl)-tetrahydro-pyrrolo [1,2-a]imidazole-2,5-dione]",124 to 125 °C
11,"Cc1ccc(F)cc1N1C(=O)CN2C(=O)CCC21 (stereo not drawn) [Example 7, 1-(5-Fluoro-2-methyl-phenyl)-tetrahydro-pyrrolo[1,2-a]imidazole-2,5-dione]",147 to 148 °C
12,"Cc1cc(Cl)ccc1N1C(=O)CN2C(=O)CCC21 (stereo not drawn) [Example 10, 1-(4-Chloro-2-methyl-phenyl)-tetrahydro-pyrrolo[1,2-a]imidazole-2,5-dione]",122 to 124 °C
13,N#Cc1ccc(N2C(=O)CN3C(=O)CCC32)cc1 (stereo not drawn),175 to 176 °C
14,"O=C1CCC2N1CC(=O)N2c1ccccc1 (stereo not drawn) [Example 1, 1-Phenyl-tetrahydro-1H-pyrrolo[1,2-a]imidazole-2,5-dione]",185 to 188 °C
15,"CCOC(=O)c1ccc(N2C(=O)CN3C(=O)CCC32)cc1 (stereo not drawn) [Example 36, 4-(2,5-Dioxo-hexahydro-pyrrolo[1,2-a]imidazole-1-yl)-benzoic acid ethyl ester]",158 to 159 °C
16,"O=C1CCC2N1CC(=O)N2c1ccc(Cl)cc1 (stereo not drawn) [Example 14, 1-(4-Chloro-phenyl)-tetrahydro-pyrrolo [1,2-a]imidazole-2,5-dione]",159 to 160 °C
17,"CC(C)CC1C(=O)N(c2ccccc2)C2CCC(=O)N12 (stereo not drawn) [Example 26, 3-Isobutyl-1-phenyl-tetrahydro-pyrrolo [1,2-a]imidazole-2,5,-dione]",101 to 102 °C
18,"Cc1ccc(N2C(=O)CN3C(=O)CCC32)cc1F (stereo not drawn) [Example 28, 1-(3-Fluoro-4-methyl-phenyl)-tetrahydro-pyrrolo[1,2-a]imidazole-2,5-dione]",136 to 137 °C
